Measurements reported in US9278131B2, “Process for lowering the viscosity of highly concentrated protein solutions” (ADOCIA, priority 2012, dated 2016).

How the values were obtained:
[1] = tested on: anti-IL5 antibody; details: tyrosine 0.004% w/v, i.e. 0.2 mM; WO 2012/141 978; cited from earlier work
[2] = tested on: rituximab; experiment: viscosity of highly concentrated rituximab solution, cone/plate rheometer; assay type: physicochemical; details: rituximab 196 mg/mL, 150 mM additive
Description: (§1) For this example, three solutions of monoclonal antibodies, i.e. a solution of bevacizumab (an IgG1 sold under the name Avastin® by Genentech/Hoffmann La Roche), a solution of infliximab (an IgG1/K sold under the name Remicade® by Schering-Plough), a solution of rituximab (an IgG1/K sold under the name mAbThera® by Hoffmann La Roche) and a solution of fusion protein, i.e. a solution of abatacept (IgG1-CTLA4 sold under the name Orencia® by Bristol-Meyers Squibb), were concentrated by ultrafiltration on Amicon® Ultra-15 filtration units with a cutoff threshold of 50 kDa.
(§2) The protein concentration of each concentrated solution was measured by UV spectroscopy (absorbance at 280 nm) after gravimetric dilution of the samples.
The solutions of rituximab (10 mg/mL) and of bevacizumab (25 mg/mL) were concentrated, respectively, to 320 mg/mL and 240 mg/mL.
(§3) The effect of RVs 2 and 9 on the viscosity of these four highly concentrated therapeutic protein solutions was then evaluated comparatively with that of Arg and NaCl.
(§4) The samples thus prepared were stored at room temperature and were analyzed using the rheometer within 24 hours of their preparation.
(§5) The pH of these formulations is the same as that of the commercial formulation of the corresponding therapeutic protein.
(§6) In this study, the highly concentrated infliximab and rituximab solutions used are the same as those which were prepared and used previously. […] The pH of these formulations is the same as that of the corresponding therapeutic protein formulation, i.e. 7.2±0.2 for infliximab, and 6.5±0.2 for rituximab.

[3] = tested on: infliximab; experiment: viscosity of highly concentrated infliximab solution, cone/plate rheometer at 21° C.; assay type: physicochemical; details: for % viscosity reduction relative to the control infliximab solution: Table V; for % viscosity reduction relative to the control infliximab solution / viscosity lowering on average, irrespective of the infliximab concentration: additive at 150 mM; for viscosity lowering on average, irrespective of the infliximab concentration: average over infliximab 80-110 mg/mL
Description: as §1, §2, §3, §4, §5, §6
The highly concentrated infliximab solution used is the same as that which was prepared and used previously. The “protein+RV” formulations were prepared in the presence of concentrations increasing from 0 to 200 mM of Arg or RV 9. The pH of these formulations is the same as that of the commercial infliximab formulation, i.e. 7.2±0.2.
The highly concentrated infliximab solution used is the same as that which was prepared and used previously.
The pH of these formulations is the same as that of the commercial infliximab formulation, i.e. 7.2±0.2.
The highly concentrated infliximab solution used was prepared in the same manner as that used previously. […] The pH of these formulations is the same as that of the commercial infliximab formulation, i.e. 7.2±0.2.

[4] = tested on: trastuzumab; details: phenylalanine 0.2%, i.e. 12 mM; trastuzumab 300 mg/mL; WO 2013/063 510; cited from earlier work
[5] = tested on: trastuzumab; experiment: viscosity of highly concentrated trastuzumab formulation, cone/plate rheometer at 25° C. (example 7); assay type: physicochemical; details: Table VII; trastuzumab 200 mg/mL, 150 mM additive, pH 6 ± 0.2, 25° C.
Experimental: (§7) For this example, two monoclonal antibody formulations, i.e. infliximab and trastuzumab (an IgG1/κ sold under the name Herceptin® by Genentech) were concentrated by ultrafiltration on Amicon® Ultra-50 centrifugal filtration units with a cutoff threshold of 50 kDa. The protein concentration of each concentrated solution was measured by UV spectroscopy (absorbance at 280 nm) after gravimetric dilution of the samples.
Once reconstituted, the infliximab and trastuzumab formulations were concentrated, respectively, to 212 mg/mL and 277 mg/mL.
(§8) The effect of RVs 2 and 11 on the viscosity of these two highly concentrated therapeutic protein formulations was then evaluated comparatively to that of Arg and NaCl. To do this, the viscosity was measured using a cone/plate rheometer (TA Instrument, AR 2000 Ex, geometry of diameter 20 mm, cone of 0.5131°, solvent trap filled with water) at a temperature of 25° C. and in flow sweep mode with shear rates of between 5000 and 50 s^−1 (3 points per decade—steady-state sensing). […]

[6] = tested on: bevacizumab; experiment: viscosity of highly concentrated bevacizumab solution, cone/plate rheometer; assay type: physicochemical; details: Table I; bevacizumab 250 mg/mL, 150 mM additive, pH 6.2 ± 0.2, 21° C.
Description: as §1
The protein concentration of each concentrated solution was measured by UV spectroscopy (absorbance at 280 nm) after gravimetric dilution of the samples. […]
as §8, with “9” for “11”, “four” for “two”, “solutions” for “formulations”, “with” for “to”, “21°” for “25°”

[7] = tested on: infliximab; experiment: viscosity of highly concentrated infliximab formulation, cone/plate rheometer at 25° C. (example 7); assay type: physicochemical; details: Table VII; infliximab 125 mg/mL, 150 mM additive, pH 7.2 ± 0.2, 25° C.
Experimental: as §7, with “samples. […]” for “samples.”
The effect of RVs 2 and 11 on the viscosity of these two highly concentrated therapeutic protein formulations was then evaluated comparatively to that of Arg and NaCl. To do this, the viscosity was measured using a cone/plate rheometer (TA Instrument, AR 2000 Ex, geometry of diameter 20 mm, cone of 0.5131°, solvent trap filled with water) at a temperature of 25° C. and in flow sweep mode with shear rates of between 5000 and 50 s^−1 (3 points per decade—steady-state sensing).
For this example, the “protein+RV” formulations were prepared by mixing a solution of RV at about 1 M obtained in example 1 with one of the concentrated infliximab and trastuzumab formulations prepared previously and the corresponding buffer so as to reach a final RV concentration of 150 mM and a final protein concentration of 125 mg/mL for infliximab and 200 mg/mL for trastuzumab. […]

[8] = molecular target: T1, abatacept (Homo sapiens, UniProt P16410); experiment: viscosity of highly concentrated abatacept (fusion protein) solution, cone/plate rheometer; assay type: physicochemical; details: Table I; abatacept 230 mg/mL, 150 mM additive, pH 7.5 ± 0.5, 21° C.
T1 construct: a fragment of a protein of interest which is the extracellular domain of the receptor of protein CTLA-4; purchased Bristol-Meyers Squibb (Orencia)
Description: as §1, §2
as §8, with “9” for “11”, “four” for “two”, “solutions” for “formulations”, “with” for “to”, “21°” for “25°”

[9] = Table II, infliximab 107 mg/mL, 150 mM additive, pH 7.2 ± 0.2
[10] = Table IV, infliximab 107 mg/mL, additive 25 mM, pH 7.2 ± 0.2
[11] = Table IV, infliximab 107 mg/mL, additive 50 mM, pH 7.2 ± 0.2
[12] = Table IV, infliximab 107 mg/mL, additive 100 mM, pH 7.2 ± 0.2
[13] = Table IV, infliximab 107 mg/mL, additive 150 mM, pH 7.2 ± 0.2
[14] = Table IV, infliximab 107 mg/mL, additive 200 mM, pH 7.2 ± 0.2
[15] = infliximab 80 mg/mL, pH 7.2 ± 0.2
[16] = infliximab 90 mg/mL, pH 7.2 ± 0.2
[17] = infliximab 100 mg/mL, pH 7.2 ± 0.2
[18] = infliximab 110 mg/mL, pH 7.2 ± 0.2
[19] = Table I, infliximab 107 mg/mL, 150 mM additive, pH 7.2 ± 0.2, 21° C.

T1 sequence (P16410 with tags, fused parts or gaps limits assumed): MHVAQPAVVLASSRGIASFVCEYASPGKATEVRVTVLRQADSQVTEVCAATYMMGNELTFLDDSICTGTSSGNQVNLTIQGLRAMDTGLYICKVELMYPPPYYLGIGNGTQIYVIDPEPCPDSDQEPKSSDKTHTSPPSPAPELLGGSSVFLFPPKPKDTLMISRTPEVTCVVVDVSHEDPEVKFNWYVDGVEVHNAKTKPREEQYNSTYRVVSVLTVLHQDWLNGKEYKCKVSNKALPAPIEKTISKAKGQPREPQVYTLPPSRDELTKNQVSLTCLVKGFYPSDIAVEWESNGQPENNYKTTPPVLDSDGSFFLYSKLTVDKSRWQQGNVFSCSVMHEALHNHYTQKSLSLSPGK

N[C@@H](Cc1ccc(O)cc1)C(=O)O [tyrosine]
increase of the viscosity of the anti-IL5 antibody solution [1]: 44%

Cl.NCCOc1ccccc1 [RV 8, 2-phenoxyethylamine hydrochloride salt]
% viscosity reduction relative to the control “protein alone” ([2]; Table III, pH 6.5 ± 0.2): 52%
% viscosity reduction relative to the control “protein alone” [3, 9]: 46%

Cl.NCCc1ccc(O)c(O)c1 [RV 7, dopamine hydrochloride salt]
% viscosity reduction relative to the control “protein alone” ([2]; Table III, pH 6.5 ± 0.2): 39%
% viscosity reduction relative to the control “protein alone” [3, 9]: 38%

Cl.NC(Cc1ccccc1)C(=O)NCCO (stereo not drawn) [RV 2, (2S-2-amino(3-phenylpropanoyl)amino)-ethanol hydrochloride salt]
% viscosity reduction relative to the control “protein alone” ([2]; Table III, pH 6.5 ± 0.2): 43%
% viscosity reduction relative to the control “protein alone” [3, 9]: 56%

Cl.NC(=O)[C@@H](N)Cc1ccccc1 [RV 9, L-phenylalaninamide hydrochloride salt]
% viscosity reduction relative to the control “protein alone” ([2]; Table III, pH 6.5 ± 0.2): 48%
% viscosity reduction relative to the control “protein alone” [3, 9]: 52%
% viscosity reduction relative to the control “protein alone” [3, 10]: 19%
% viscosity reduction relative to the control “protein alone” [3, 11]: 31%
% viscosity reduction relative to the control “protein alone” [3, 12]: 41%
% viscosity reduction relative to the control “protein alone” [3, 13]: 44%
% viscosity reduction relative to the control “protein alone” [3, 14]: 56%
% viscosity reduction relative to the control infliximab solution [3, 15]: 50%
% viscosity reduction relative to the control infliximab solution [3, 16]: 52%
% viscosity reduction relative to the control infliximab solution [3, 17]: 55%
% viscosity reduction relative to the control infliximab solution [3, 18]: 49%
viscosity lowering on average, irrespective of the infliximab concentration [3]: about 52%
concentration sufficient to obtain a viscosity reduction equivalent to that obtained using Arg at 150 mM ([3]; infliximab 107 mg/mL): 50000 µM
efficiency in viscosity reduction relative to Arg ([3]; infliximab 107 mg/mL, at 100 mM): about 4 times
efficiency in viscosity reduction relative to Arg ([3]; infliximab 107 mg/mL, at 150 mM): twice as efficient as Arg

N[C@@H](Cc1ccccc1)C(=O)O [phenylalanine]
increase of the viscosity of a trastuzumab formulation [4]: 83%

[Cl-].[Na+] [NaCl, sodium chloride]
% of viscosity reduction relative to the control “protein alone” [5]: 38%
% viscosity reduction relative to the control “protein alone” [6]: ≦0%
% of viscosity reduction relative to the control “protein alone” [7]: ≦0%
% viscosity reduction relative to the control “protein alone” ([2]; Table I, pH 6.5 ± 0.2, 21° C.): 21%
% viscosity reduction relative to the control “protein alone” ([2]; Table III, pH 6.5 ± 0.2): 21%
% viscosity reduction relative to the control “protein alone” [3, 19]: ≦0%
% viscosity reduction relative to the control “protein alone” [3, 9]: ≦0%
% viscosity reduction relative to the control “protein alone” [8]: 7%

Cl.N=C(N)NCCC[C@H](N)C(=O)O [Arg, L-arginine hydrochloride salt]
% of viscosity reduction relative to the control “protein alone” [5]: 56%
% viscosity reduction relative to the control “protein alone” [6]: 26%
% of viscosity reduction relative to the control “protein alone” [7]: 11%
% viscosity reduction relative to the control “protein alone” ([2]; Table I, pH 6.5 ± 0.2, 21° C.): 58%
% viscosity reduction relative to the control “protein alone” ([2]; Table III, pH 6.5 ± 0.2): 58%
% viscosity reduction relative to the control “protein alone” [3, 19]: 32%
% viscosity reduction relative to the control “protein alone” [3, 9]: 32%
% viscosity reduction relative to the control “protein alone” [3, 10]: 9%
% viscosity reduction relative to the control “protein alone” [3, 11]: 13%
% viscosity reduction relative to the control “protein alone” [3, 12]: 9%
% viscosity reduction relative to the control “protein alone” [3, 13]: 31%
% viscosity reduction relative to the control “protein alone” [3, 14]: 34%
% viscosity reduction relative to the control infliximab solution [3, 15]: 25%
% viscosity reduction relative to the control infliximab solution [3, 16]: 30%
% viscosity reduction relative to the control infliximab solution [3, 17]: 39%
% viscosity reduction relative to the control infliximab solution [3, 18]: 22%
viscosity lowering on average, irrespective of the infliximab concentration [3]: about 29%
% viscosity reduction relative to the control “protein alone” [8]: 31%

Cl.NCCc1ccccc1 [RV 6, 2-phenylethylamine hydrochloride salt]
% viscosity reduction relative to the control “protein alone” ([2]; Table III, pH 6.5 ± 0.2): 39%
% viscosity reduction relative to the control “protein alone” [3, 9]: 38%

C[N+](C)(C)Cc1ccccc1.[Cl-] [RV 5, benzyltrimethylammonium chloride]
% viscosity reduction relative to the control “protein alone” ([2]; Table III, pH 6.5 ± 0.2): 38%
% viscosity reduction relative to the control “protein alone” [3, 9]: 49%

Cl.N[C@H](CO)Cc1ccccc1 [RV 4, (S)-(−)-2-amino-3-phenyl-1-propanol hydrochloride salt]
% viscosity reduction relative to the control “protein alone” ([2]; Table III, pH 6.5 ± 0.2): 37%
% viscosity reduction relative to the control “protein alone” [3, 9]: 36%
